Assay results from patent US10189854B2, “Substituted pyrimidine compounds” (Grünenthal GmbH, priority 2014, dated 2019).

target: human PDE4B1 (Homo sapiens (Human), UniProt Q07343); test: cAMP HTRF assay to determine the activity of hPDE4B1; assay type: biochemical; conditions: IC50 inhibition of PDE4B; human recombinant PDE4B1, cAMP HTRF assay
Method in brief: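 Recombinant human PDE4B1 expressed in Sf9 cells (4.8 U) was incubated with 40 nM cAMP for 30 min at room temperature in Tris buffer, pH 7.8, with MgCl2, DTT and Tween 20. HTRF detection of remaining cAMP followed, with 1 mM IBMX stop, read 60 min later as the 665/620 nm ratio. Results are % inhibition versus control.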

human PDE4B1, sequence (Q07343 whole entry): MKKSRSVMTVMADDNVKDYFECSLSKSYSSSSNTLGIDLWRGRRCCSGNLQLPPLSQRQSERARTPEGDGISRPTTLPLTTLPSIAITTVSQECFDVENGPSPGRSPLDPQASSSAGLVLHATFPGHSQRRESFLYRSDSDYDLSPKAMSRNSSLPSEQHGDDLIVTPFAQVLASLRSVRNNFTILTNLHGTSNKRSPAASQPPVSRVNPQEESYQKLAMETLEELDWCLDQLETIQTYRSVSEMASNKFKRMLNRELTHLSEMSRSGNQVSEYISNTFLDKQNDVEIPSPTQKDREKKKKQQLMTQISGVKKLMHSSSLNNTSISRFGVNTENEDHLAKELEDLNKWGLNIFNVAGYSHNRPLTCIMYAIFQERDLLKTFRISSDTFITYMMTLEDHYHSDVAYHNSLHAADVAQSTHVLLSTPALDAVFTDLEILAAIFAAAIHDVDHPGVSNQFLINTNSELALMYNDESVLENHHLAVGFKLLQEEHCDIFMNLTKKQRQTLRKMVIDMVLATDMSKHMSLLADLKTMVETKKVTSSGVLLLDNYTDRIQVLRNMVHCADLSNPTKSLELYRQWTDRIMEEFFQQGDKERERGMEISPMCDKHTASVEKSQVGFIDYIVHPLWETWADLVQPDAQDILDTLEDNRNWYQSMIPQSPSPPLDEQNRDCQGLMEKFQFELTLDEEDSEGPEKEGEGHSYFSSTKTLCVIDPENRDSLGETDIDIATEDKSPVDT

IC50 | Compound
< 0.1 µM | O=C(c1ccc2c(c1)N(c1ncc(-c3cc(F)cc(F)c3)cn1)CC21CC1)N1CCOCC1 [Compound 50, [1-[5-(3,5-Difluoro-phenyl)-pyrimidin-2-yl]-spiro[1,2-dihydro-indole-3,1′-cyclopropane]-6-yl]-morpholin-4-ylmethanone]
< 0.1 µM | CS(=O)(=O)c1ccc(-c2cnc(N3CC4(CC4)c4ccc(C(=O)N5CCOCC5)cc43)nc2)c(F)c1 [Compound 29, [1-[5-(2-Fluoro-4-methylsulfonyl-phenyl)-pyrimidin-2-yl]-spiro[1,2-dihydro-indole-3,1′-cyclopropane]-6-yl]morpholin-4-yl-methanone]
0.1 to 1 µM | O=C(c1cnc2c(c1)N(c1ncc(-c3ccccc3F)cn1)CC21CC1)N1CCOCC1 [Compound 169, [1-[5-(2-Fluorophenyl)-pyrimidin-2-yl]-spiro[1,2-dihydro-pyrrolo[3,2-b]pyridine-3,1′-cyclopropane]-6-yl]-morpholin-4-yl-methanone]
1 to 10 µM | COc1ccc(C(N)=O)c(-c2cnc(N3CC4(CC4)c4ccc(C(=O)N5CCNCC5)cc43)nc2)c1 [Compound 122, 4-Methoxy-2-[2-[6-(piperazine-1-carbonyl)-spiro[1,2-dihydro-indole-3,1′-cyclopropane]-1-yl]-pyrimidin-5-yl]-benzamide]
< 0.1 µM | COc1ccsc1-c1cnc(N2CC3(CC3)c3ccc(C(=O)N4CCOCC4)cc32)nc1 [Compound 139, [1-[5-(3-Methoxy-thiophen-2-yl)-pyrimidin-2-yl]-spiro[1,2-dihydro-indole-3,1′-cyclopropane]-6-yl]-morpholin-4-yl-methanone]
0.1 to 1 µM | O=C(c1ccc2c(c1)N(c1ncc(-c3ccc(F)cc3F)cn1)CC21CC1)N1CCNCC1 [Compound 71, [1-[5-(2,4-Difluoro-phenyl)-pyrimidin-2-yl]-spiro[1,2-dihydro-indole-3,1′-cyclopropane]-6-yl]-piperazin-1-yl-methanone]
< 0.1 µM | [1-[5-(4-Fluoro-pyridin-2-yl)-pyrimidin-2-yl]-spiro[1,2-dihydro-indole-3,1′-cyclopropane]-6-yl]-morpholin-4-yl-methanone [Compound 187]
0.1 to 1 µM | O=C(c1ccc2c(c1)N(c1ncc(-c3ccccc3Cl)cn1)CC21CC1)N1CCOCC1 [Compound 6, [1-[5-(2-Chlorophenyl)-pyrimidin-2-yl]-spiro[1,2-dihydro-indole-3,1′-cyclopropane]-6-yl]-morpholin-4-yl-methanone]
< 0.1 µM | N#Cc1ccc(F)c(-c2cnc(N3CC4(CC4)c4ccc(C(=O)N5CCOCC5)cc43)nc2)c1 [Compound 22, 4-Fluoro-3-[2-[6-(morpholine-4-carbonyl)-spiro[1,2-dihydro-indole-3,1′-cyclopropane]-1-yl]-pyrimidin-5-yl]-benzonitrile]
0.1 to 1 µM | [1-[5-(1-Cyclopropyl-phenyl)-pyrimidin-2-yl]-spiro[1,2-dihydro-indole-3,1′-cyclopropane]-6-yl]-piperazin-1-yl-methanone [Compound 70]
< 0.1 µM | O=C(c1ccc2c(c1)N(c1ncc(-c3ccc(CO)o3)cn1)CC21CC1)N1CCOCC1 [Compound 142, [1-[5-[5-(Hydroxymethyl)-furan-2-yl]-pyrimidin-2-yl]-spiro[1,2-di-hydro-indole-3,1′-cyclopropane]-6-yl]-morpholin-4-yl-methanone]
< 0.1 µM | O=C(c1ccc2c(c1)N(c1ncc(-c3ccccc3F)cn1)CC21CC1)N1CC2CC1CN2 (centres unmarked) [Compound 107, (2,5-Diazabicyclo[2.2.1]heptan-2-yl)-[1-[5-(2-fluorophenyl)-pyrimidin-2-yl]-spiro[1,2-dihydro-indole-3,1′-cyclopropane]-6-yl]-methanone]
< 0.1 µM | O=C(c1ccc2c(c1)N(c1ncc(-c3cc(C(F)(F)F)ccc3F)cn1)CC21CC1)N1CCOCC1 [Compound 23, [1-[5-[2-Fluoro-5-(trifluoromethyl)-phenyl]-pyrimidin-2-yl]-spiro[1,2-dihydro-indole-3,1′-cyclopropane]-6-yl]-morpholin-4-yl-methanone]
0.1 to 1 µM | NC(=O)c1ccc(-c2cnc(N3CC4(CC4)c4ccc(C(=O)N5CCOCC5)cc43)nc2)s1 [Compound 152, 5-[2-[6-(Morpholine-4-carbonyl)-spiro[1,2-dihydro-indole-3,1′-cyclopropane]-1-yl]-pyrimidin-5-yl]-thiophene-2-carboxylic acid amide]
1 to 10 µM | O=C(c1ccc2c(c1)N(c1ncc(-c3c(F)cccc3C(F)(F)F)cn1)CC21CC1)N1CCOCC1 [Compound 24, [1-[5-[2-Fluoro-6-(trifluoromethyl)-phenyl]-pyrimidin-2-yl]-spiro[1,2-dihydro-indole-3,1′-cyclopropane]-6-yl]-morpholin-4-yl-methanone]
0.1 to 1 µM | Cc1noc(C)c1-c1cnc(N2CC3(CC3)c3ccc(C(=O)N4CCOCC4)cc32)nc1 [Compound 135, [1-[5-(3,5-Dimethyl-isoxazol-4-yl)-pyrimidin-2-yl]-spiro[1,2-di-hydro-indole-3,1′-cyclopropane]-6-yl]-morpholin-4-yl-methanone]
0.1 to 1 µM | O=C(c1ccc2c(c1)N(c1ncc(-c3ccccc3F)cn1)CC21CC1)N1CC2CC1CN2CCO (centres unmarked) [Compound 218, [1-[5-(2-Fluorophenyl)-pyrimidin-2-yl]-spiro[1,2-dihydro-indole-3,1′-cyclopropane]-6-yl]-[5-(2-hydroxy-ethyl)-2,5-diazabicyclo[2.2.1]heptan-2-yl]-methanone]
0.1 to 1 µM | CN(CC1OCCO1)C(=O)c1ccc2c(c1)N(c1ncc(-c3ccccc3F)cn1)CC21CC1 [Compound 87, N-([1,3]Dioxolan-2-yl-methyl)-1-[5-(2-fluorophenyl)-pyrimidin-2-yl]-N-methyl-spiro[1,2-dihydro-indole-3,1′-cyclopropane]-6-carboxylic acid amide]
0.1 to 1 µM | CN(C(=O)c1ccc2c(c1)N(c1ncc(-c3ccccc3F)cn1)CC21CC1)c1ccncc1 [Compound 88, 1-[5-(2-Fluorophenyl)-pyrimidin-2-yl]-N-methyl-N-pyridin-4-yl-spiro[1,2-dihydro-indole-3,1′-cyclopropane]-6-carboxylic acid amide]
< 0.1 µM | N#Cc1csc(-c2cnc(N3CC4(CC4)c4ccc(C(=O)N5CCOCC5)cc43)nc2)c1 [Compound 161, 5-[2-[6-(Morpholine-4-carbonyl)-spiro[1,2-dihydro-indole-3,1′-cyclopropane]-1-yl]-pyrimidin-5-yl]-thiophene-3-carbonitrile]
< 0.1 µM | COc1ccc(F)c(-c2cnc(N3CC4(CC4)c4ccc(C(=O)N5CCNCC5)cc43)nc2)c1 [Compound 73, [1-[5-(2-Fluoro-5-methoxy-phenyl)-pyrimidin-2-yl]-spiro[1,2-dihydro-indole-3,1′-cyclopropane]-6-yl]-piperazin-1-yl-methanone]
< 0.1 µM | O=C(c1ccc2c(c1)N(c1ncc(-c3ccsc3Cl)cn1)CC21CC1)N1CCOCC1 [Compound 132, [1-[5-(2-Chloro-thiophen-3-yl)-pyrimidin-2-yl]-spiro[1,2-dihydro-indole-3,1′-cyclopropane]-6-yl]-morpholin-4-yl-methanone]

Compound | IC50
NC(=O)c1ccc(F)c(-c2cnc(N3CC4(CC4)c4ccc(C(=O)N5CCOCC5)cc43)nc2)c1 [Compound 35, 4-Fluoro-3-[2-[6-(morpholine-4-carbonyl)-spiro[1,2-dihydro-indole-3,1′-cyclopropane]-1-yl]-pyrimidni-5-yl]-benzamide] | < 0.1 µM
